Laboratory results reported in article PMC12690573, “Playing with Structural Parameters in the Design of Ruthenium(II)–p‑Cymene Complexes as Potential Antibacterial Agents” (Inorganic Chemistry, 2025).
In brackets after ≈: the same amount, converted by molar mass. Like-named read-outs stand apart in the source and are kept apart here.

Tests used:
Horse Heart Cytochrome c = molecular target: T1, Horse Heart Cytochrome c (Equus caballus, UniProt P00004); experiment: ESI-MS protein interaction study with CytC; assay type: binding; details: 1:3 protein to ruthenium ratio, 24 h, 37 °C
T1 construct: Horse Heart Cytochrome c (Merck); purchased Merck
Method: (§1) Accordingly, ESI-MS spectra of RNase A, SOD, and CytC incubated for 24 h with a 3-fold molar excess of each of the five different ruthenium complexes were recorded. […] This could be exacerbated by the steric hindrance of L3.
(§2) Sample preparation: stock solutions of Bovine Superoxide Dismutase SOD) (Merck), Bovine Pancreatic Ribonuclease A (Merck), and Horse Heart Cytochrome c (Merck) 10^–3 M were prepared by dissolving the lyophilized protein in LC–MS-grade water. Stock solutions 10^–2 M RACs were prepared by dissolving the samples in acetonitrile. For the experiments, an aliquot of the stock solutions of the selected protein was mixed with aliquots of each ruthenium compounds at protein-to-metal ratio 1:3 and diluted with LC–MS-grade water to 100 μM final protein concentration. The mixtures were incubated at 37 °C up to 24 h. After the incubation time, the protein solutions were sampled and diluted to a final protein concentration of 500 nM using LC–MS-grade water and adding 0.1% v/v of formic acid just before the infusion in the mass spectrometer.
Instrumental parameters: the ESI mass spectra were acquired through direct infusion at 7 μL min^–1 flow rate in a TripleTOF 5600+ high-resolution mass spectrometer (Sciex, Framingham, MA, U.S.A.), equipped with a DuoSpray interface operating with an ESI probe. […]

B. cenocepacia K56-2 = experiment: Antibacterial susceptibility, broth microdilution (OD600); assay type: cell-based, Burkholderia cenocepacia; details: B. cenocepacia K56-2, MHB, 48 h
Excerpt: (§3) The antibacterial properties of Ru-pCy1–5 were investigated against Burkholderia cenocepacia strains J2315 and K56-2, two well-characterized clinical isolates of this Gram-negative pathogen, as well as against Bacillus subtilis 168, which was used as a model for a Gram-positive bacterial strain.
(§4) The obtained results are presented as normalized OD600 values, reporting the ratio of bacterial growth relative to that of the control (untreated) cells. These are plotted in Figure as a function of the compound concentrations (μg/mL), providing a quantitative assessment of the dose-dependent effects on bacterial growth of the tested ruthenium complexes.
(§5) Antimicrobial susceptibility was assessed in the following strains: B. cenocepacia K56-2 and J2315 and B. subtilis 168. For each bacterial strain, three independent biological replicates were prepared by inoculating Mueller–Hinton Broth (MHB) into sterile culture tubes, followed by overnight incubation at 37 °C with shaking at 130 rpm. Cultures were diluted to a final OD600 of 0.05 per well in 96-well microplates (Sarstedt AG & Co.) and exposed to 10 serial 2-fold dilutions of the compounds, ranging from 256 μg/mL to 0.5 μg/mL. Each biological replicate included three technical replicates. Growth inhibition was assessed visually and quantified by measuring OD600 after 24 h for B. subtilis 168 and after 48 h for B. cenocepacia strains K56-2 and J2315 using a Tecan Infinite 200 PRO plate reader.

B. cenocepacia J2315 = experiment: as above; assay type: cell-based, Burkholderia cenocepacia; details: for MIC: B. cenocepacia J2315, MHB, 48 h
Excerpt: as §3, §4, §5

[1] = molecular target: T2, Bovine Pancreatic Ribonuclease A (Bos taurus, UniProt P61823); experiment: ESI-MS protein interaction study with RNase A; assay type: binding; details: 1:3 protein to ruthenium ratio, 24 h, 37 °C
T2 construct: Bovine Pancreatic Ribonuclease A (Merck); purchased Merck
T2 sequence (P61823 27-150): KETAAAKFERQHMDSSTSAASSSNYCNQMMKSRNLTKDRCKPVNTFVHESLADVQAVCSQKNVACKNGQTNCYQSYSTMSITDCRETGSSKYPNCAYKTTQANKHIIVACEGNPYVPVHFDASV
Method: as §1, §2
(§6) Instrumental parameters: the ESI mass spectra were acquired through direct infusion at 7 μL min^–1 flow rate in a TripleTOF 5600+ high-resolution mass spectrometer (Sciex, Framingham, MA, U.S.A.), equipped with a DuoSpray interface operating with an ESI probe.
RNase: positive polarity, Ionspray Voltage Floating 5500 V, Temperature 0, Ion source Gas 1 (GS1) 40 L/min; Ion source Gas 2 (GS2) 0; Curtain Gas (CUR) 15 L/min, Declustering Potential (DP) 100 V, Collision Energy (CE) 10 V, acquisition range 1000–2600 m/z.
(§7) For acquisition, Analyst TF software 1.7.1 (Sciex) was used, and deconvoluted spectra were obtained by using the Bio Tool Kit microapplication v.2.2 embedded in Peak-ViewTM software v.2.2 (Sciex).

B. subtilis 168 = experiment: Antibacterial susceptibility, broth microdilution (OD600); assay type: cell-based, Bacillus subtilis; details: for MIC: B. subtilis 168, MHB, 24 h; for Antibacterial activity profile (in words) / Concentration inducing approximately 50% inhibition of bacterial growth: B. subtilis; for Antibacterial activity profile (in words): normalized OD600 vs concentration; for Concentration inducing approximately 50% inhibition of bacterial growth: normalized OD600, 24 h
Excerpt: as §3, §4, §5

[2] = Water–octanol partition coefficient, shake-flask method (Log P pH7.4); assay type: physicochemical; details: PBS pH 7.4 / n-octanol, 16 μM
Method: The study was performed by using the shake-flask method, obtaining the water–octanol partition coefficients of complexes in PBS buffer at pH = 7.4 (Log P pH7.4), as listed in Table .
The octanol–water distribution coefficients were determined at pH 7.4 using the shake-flask method. , Briefly, solutions of the tested compounds (16 μM) in phosphate buffer (pH 7.4) were mixed with n-octanol in flasks at three different PBS:n-octanol ratios (1:1, 0.5:1, 2:1). The mixtures were manually shaken to allow equilibration between the organic and aqueous phases. Subsequently, phase separation was achieved by centrifugation at 4000 rpm for 10 min. The concentrations of ruthenium compounds in both phases were then determined spectrophotometrically. The log P 7.4 values were calculated as the mean value of the log[Ru-pCy1–5]-oct/[Ru-pCy1–5]PBS/4 values obtained from the three different PBS:n-octanol ratio samples for each complex.

[3] = Aquation (Ru–Cl hydrolysis) followed by UV–vis in aqueous solution; assay type: physicochemical; details: neutral pH, 298 K; for k water (aquation rate constant) / t 1/2 (aquation half-life): 10 μM, pseudo-first-order model
Method: In view of the well-known lability of the Ru(II)–Cl bond in RACs and considering its relevance for their biological mechanism of action, the aquation process of all systems was investigated. This was performed according to literature methods spectrophotometrically, by registering the UV–vis spectra of freshly prepared aqueous solutions of complexes at neutral pH over different times, up to 12 h, at 298 K. Results for Ru-pCy1 are shown in Figure , while those for the other complexes are reported in Figures S27–S28 Supporting Information. […] The temporal evolution to the aquo-species is also further supported by comparison of spectra collected at increasing time frames and the absorption profile of the aquo species, registered by adding AgNO3 to the metal complex (Figure b). A similar behavior was also observed for the other compounds, confirming their capability to readily lose the chloride ligand. […] Hydrolysis was not observed during the stability experiments (Figure S26), likely being suppressed by the high NaCl concentration in the PBS buffer media (140 mM).
The aquation rate constants (k water) and the corresponding half-lives (t 1/2) were determined by the time-dependent absorbance changes at the MLCT maxima according to a pseudo-first-order kinetic model. The resulting values, reported in Table , range between 2.48 and 5.4 × 10^–4 s^–1.

[4] = molecular target: T3, Bovine Superoxide Dismutase (SOD) (Bos taurus, UniProt P00442); experiment: ESI-MS protein interaction study with SOD; assay type: binding; details: 1:3 protein to ruthenium ratio, 24 h, 37 °C
T3 construct: purchased Merck
Method: as §1, §2, §6
SOD: positive polarity, IonSpray Voltage Floating 5500 V, Temperature 0, Ion source Gas 1 (GS1) 40 L/min; Ion source Gas 2 (GS2) 0; Curtain Gas (CUR) 15 L/min, Declustering Potential (DP) 200 V, Collision Energy (CE) 10 V, acquisition range 1500–3500 m/z.
as §7

[5] = pKa of coordinated water ligand by UV–vis pH titration; assay type: physicochemical; details: absorbance at 435 nm, Henderson–Hasselbalch fit, 298 K
Excerpt: Lastly, the tendency of the coordinated water ligand to undergo deprotonation was also considered. This has been investigated for the lead compound Ru-pCy1, by recording the UV–vis spectra of batchwise aqueous solutions of the complex at different pH values and monitoring the changes in the MLCT region (Figure S29).
(§8) The acid–base behavior of the coordinated water ligand to the metal scaffold was also considered. To this aim, the UV–vis spectra of batchwise aqueous solutions of the lead compound Ru-pCy1 at different pH at 298 K were registered, and the changes in the MLCT region were monitored. […] A slightly higher value (8.82 ± 0.08) was instead determined potentiometrically under mixed solvent conditions (H2O/EtOH 4:1 v/v, NaClO4 0.1 M, 298 K, ligand concentration 1 mM), required to ensure the full solubilization of the complex.

[6] = pKa of coordinated water ligand, potentiometric; assay type: physicochemical; details: H2O/EtOH 4:1 v/v, NaClO4 0.1 M, 298 K, 1 mM
Method: as §8

[7] = Stability in CH3CN/PBS solution by UV–vis over 72 h; assay type: physicochemical; details: 1 × 10^–5 M in CH3CN/PBS (CH3CN 1% v/v), room temperature
Method: To gain insights into the suitability of RACs for biological purposes, their stability in aqueous solution was investigated before studying their interactions with representative proteins (SOD, RNase A, and CytC) by ESI-MS analysis (vide infra). Measurements were performed under strictly controlled conditions (temperature, pH, and complex concentration), namely, at a concentration of 1 × 10^–5 M in CH3CN/PBS solution (CH3CN 1% v/v) at room temperature, over a total of 72 h. The resulting time-dependent absorption profiles are reported in Figure S26 (Supporting Information).
Spectrofluorimetric-grade solvents were used for the preparation of all solutions. The PBS solution (pH 7.4, KCl 2.7 mM, NaCl 140 mM, phosphate 10 mM) was prepared according to the standard procedure. RACs were dissolved in CH3CN and then diluted to reach a final concentration of 1 × 10^–5 M in CH3CN/buffer solution (CH3CN 1% v/v). A PerkinElmer Lambda 900 spectrophotometer was employed to record the UV–Visible absorption spectra using 10 mm path-length quartz cuvettes.

T3 sequence (P00442 whole entry): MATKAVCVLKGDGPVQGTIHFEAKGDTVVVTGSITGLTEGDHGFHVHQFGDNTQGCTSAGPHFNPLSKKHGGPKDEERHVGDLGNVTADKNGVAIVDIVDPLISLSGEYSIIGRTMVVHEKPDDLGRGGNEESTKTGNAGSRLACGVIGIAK
T1 sequence (P00004 whole entry): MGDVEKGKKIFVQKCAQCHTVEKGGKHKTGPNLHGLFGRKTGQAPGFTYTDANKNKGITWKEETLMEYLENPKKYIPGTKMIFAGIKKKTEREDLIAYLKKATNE

SMILES | Adduct formation with CytC (Horse Heart Cytochrome c) | MIC (B. cenocepacia K56-2) [µg/mL] | MIC (B. cenocepacia J2315) [µg/mL] | Adduct formation with RNase A [1] | MIC (B. subtilis 168) [µg/mL] | Antibacterial activity profile (in words) (B. subtilis 168) | Log P pH7.4 [2] | Ru–Cl hydrolysis (spectral variation over time) ([3]; aqueous solution, up to 12 h) | Adduct formation with SOD [4] | Concentration inducing approximately 50% inhibition of bacterial growth (B. cenocepacia J2315; B. cenocepacia J2315, normalized OD600, 48 h) [µg/mL] | Concentration inducing approximately 50% inhibition of bacterial growth (B. subtilis 168) [µg/mL] | pK a of coordinated water ligand [5] | k water (aquation rate constant) [3] | t 1/2 (aquation half-life) [3] [min] | pK a of coordinated water ligand [6] | Stability in aqueous solution [7] | MIC (B. cenocepacia K56-2; Burkholderia cenocepacia, K562, read-out: MIC) [µg/mL] | MIC (B. cenocepacia J2315; Burkholderia cenocepacia, read-out: MIC) [µg/mL] | MIC (B. subtilis 168; Bacillus subtilis, read-out: MIC) [µg/mL]
Cc1ccc(C(C)C)cc1.F[P-](F)(F)(F)(F)F.[Cl-].[Ru+2].c1ccc2nc(-c3ccc4ccccc4n3)ccc2c1 [Ru-pCy3] | did not interact | > 256 | 256 | did not interact | 256 | intermediate antibacterial characteristics | 0.57 ± 0.19 | did not show appreciable variations | did not interact |  |  |  |  |  |  |  |  |  | 
Cc1ccc(C(C)C)cc1.F[P-](F)(F)(F)(F)F.[Cl-].[Ru+2].c1ccc2cc3nc4c5cccnc5c5ncccc5c4nc3cc2c1 [Ru-pCy1] |  | 256 | 128 | form stable adducts | 128 | notable inhibitory effect | 0.80 ± 0.30 |  | form stable adducts | ~32 | ~64 | 8.3 ± 0.1 | 2.5 ± 0.1 × 10^–4 s^–1 | 46.5 ± 2.0 | 8.82 ± 0.08 | moderate tendency to precipitate at the longest time points |  |  | 
O=C(N[C@H](CO)[C@H](O)c1ccc([N+](=O)[O-])cc1)C(Cl)Cl [chloramphenicol, reference compound] |  |  |  |  |  |  |  |  |  |  |  |  |  |  |  |  | 64 (≈ 198 µM) | 32 (≈ 99 µM) | 16 (≈ 49.5 µM)
Cc1ccc(C(C)C)cc1.F[P-](F)(F)(F)(F)F.[Cl-].[Ru+2].c1ccc(-c2ccnc3c2ccc2c(-c4ccccc4)ccnc23)cc1 [Ru-pCy2] |  | > 256 | 256 | form stable adducts | 256 | notable inhibitory effect | 0.91 ± 0.30 |  | form stable adducts |  | ~8 |  | 4.5 ± 0.2 × 10^–4 s^–1 | 25.7 ± 1.2 |  |  |  |  | 
